Test results taken from the supplement of paper PMC10307832.

Columns and labels:
Assay in all cases: relative viability (nuclei count vs DMSO), 5 days (fraction); higher = more cells survive
[1] = compound: Nc1nc(Nc2ccc3c(c2)CC[C@@H](N2CCCC2)CC3)nn1-c1cc2c(nn1)-c1ccccc1CCC2 [Bemcentinib] + Nc1ncn([C@H]2C[C@H](O)[C@@H](CO)O2)c(=O)n1 [Decitabine] (partner 2 µM)
Outline: (§1)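 Cells from lung cancer lines were seeded into 1536-well plates and, one day later, dosed by pin tool. Treatments were either a single drug or a fixed dose of an anchor drug with five library-drug doses (not always all listed) in √10 steps. After 5 days, nuclei were stained in a one-step fixation (final 0.05% Triton X-100, 1% formaldehyde, 1 ug/ml Hoechst) and counted on 4× images, and relative viability is the treated-to-vehicle nuclei ratio, as the median of duplicate plates.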

[2] = compound: CC1=CC=C(C=C1)C(=O)CN2C3=C(CCCC3)SC2=N [Pifithrin_alpha] + Nc1nc2[nH]cc(CCc3ccc(C(=O)N[C@@H](CCC(=O)O)C(=O)O)cc3)c2c(=O)[nH]1 [Pemetrexed] (partner 0.2 µM)
Outline: as §1

[3] = compound: CC1=CC=C(C=C1)C(=O)CN2C3=C(CCCC3)SC2=N [Pifithrin_alpha] + CC(=O)Nc1cccc(-n2c(=O)n(C3CC3)c(=O)c3c(Nc4ccc(I)cc4F)n(C)c(=O)c(C)c32)c1 [Trametinib] (partner 0.02 µM)
Outline: as §1

[4] = compound: Nc1nc(Nc2ccc3c(c2)CC[C@@H](N2CCCC2)CC3)nn1-c1cc2c(nn1)-c1ccccc1CCC2 [Bemcentinib] + Cc1nc(NC(=O)N2CCC[C@H]2C(N)=O)sc1-c1ccnc(C(C)(C)C(F)(F)F)c1 [Alpelisib] (partner 2 µM)
Outline: as §1

Cell Line | relative viability ([1]; first compound 0.04 µM) | relative viability ([1]; first compound 0.1265 µM) | relative viability ([1]; first compound 0.4 µM) | relative viability ([1]; first compound 1.265 µM) | relative viability ([1]; first compound 4 µM) | relative viability ([2]; first compound 1 µM) | relative viability ([2]; first compound 3.162 µM) | relative viability ([2]; first compound 10 µM) | relative viability ([2]; first compound 31.62 µM) | relative viability ([2]; first compound 100 µM) | relative viability ([3]; first compound 1 µM) | relative viability ([3]; first compound 3.162 µM) | relative viability ([3]; first compound 10 µM) | relative viability ([3]; first compound 31.62 µM) | relative viability ([3]; first compound 100 µM) | relative viability ([4]; first compound 0.04 µM) | relative viability ([4]; first compound 0.1265 µM) | relative viability ([4]; first compound 0.4 µM) | relative viability ([4]; first compound 1.265 µM) | relative viability ([4]; first compound 4 µM)
LOU-NH91 | 0.78 | 0.82 | 0.837 | 0.863 | 0.801 | 0.398 | 0.362 | 0.307 | 0.332 | 0.359 | 0.746 | 0.72 | 0.731 | 0.612 | 0.568 | 0.631 | 0.702 | 0.7 | 0.717 | 0.71
NCI-H647 | 0.386 | 0.296 | 0.494 | 0.368 | 0.454 | 0.166 | 0.164 | 0.197 | 0.156 | 0.162 | 0.391 | 0.335 | 0.332 | 0.344 | 0.496 | 1.1 | 1.22 | 1.25 | 1.13 | 1.08
NCI-H1915 | 0.24 | 0.25 | 0.255 | 0.252 | 0.257 | 0.478 | 0.547 | 0.441 | – | 0.598 | 0.291 | 0.296 | 0.302 | – | 0.308 | 1.15 | 1.13 | 1.1 | 1.07 | 1.08
NCI-H1944 | 0.413 | 0.39 | 0.443 | 0.443 | 0.417 | 0.562 | 0.55 | 0.59 | 0.457 | 0.512 | 0.395 | 0.358 | 0.368 | 0.319 | 0.374 | 0.825 | 0.821 | 0.898 | 0.871 | 0.846
NCI-H1792 | 0.582 | 0.741 | 0.594 | 0.454 | 0.63 | 1.12 | 0.649 | 0.675 | – | 0.585 | 0.498 | 0.389 | 0.432 | – | 0.316 | 0.812 | 0.66 | 0.828 | 0.746 | 0.781
HARA | 0.578 | 0.651 | 0.561 | 0.556 | 0.518 | 0.234 | 0.232 | 0.266 | 0.248 | 0.23 | 0.557 | 0.695 | 0.836 | 0.493 | 0.45 | 0.759 | 0.918 | 0.822 | 0.866 | 0.936
NCI-H2347 | 0.653 | 0.573 | 0.665 | 0.678 | 0.639 | 0.406 | 0.416 | 0.441 | 0.485 | 0.447 | 0.301 | 0.335 | 0.24 | 0.293 | 0.221 | 1.14 | 1.08 | 1.07 | 1.1 | 0.974
